Data on twelve compounds can be found in patent publication US11446287B2, “Compounds and methods for EP300 or CBP modulation and indications therefor” (Opna Immuno-Oncology SA, priority 2019, dated 2022).

The assay addresses T1, Recombinant human BRD4 containing dual bromodomains (BRD4-BD12 (1-477)) (Homo sapiens, UniProt O60885).
T1 construct: Recombinant human BRD4 containing dual bromodomains (BRD4-BD12 (1-477)); made in house; host or cells: E. coli BL21-CodonPlus (DE3), modified pET vector
Description: BRD4 Alphascreen binding assay. In short, it runs like this:
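His-tagged human BRD4 tandem bromodomains (1-477, E. coli) incubated 1 h at room temperature with biotinylated tetra-acetylated H4 (1-21) peptide and compound in HEPES pH 7.5 buffer with 2 mM DTT. AlphaScreen signal read 30 min after adding beads (7.5 μg/ml); IC50 from four-parameter fit after normalization to controls.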

By IC50 is commonly meant the concentration needed to halve the response being measured. With `Cc1noc(C)c1-c1cnc2c(c1)c(-c1ccc(C(N)=O)cc1)cn2C(c1ccccn1)C1CCCC1` (stereo not drawn) [P-0020, 4-(1-(cyclopentyl(pyridin-2-yl)methyl)-5-(3,5-dimethylisoxazol-4-yl)-1H-pyrrolo[2,3-b]pyridin-3-yl)benzamide], the IC50 lay in the range of 1 to 8 µM.
The same measure for `CNC(=O)c1ccc(-c2cn(C(c3ccccn3)C3CCCC3)c3ncc(-c4c(C)noc4C)cc23)cc1` (stereo not drawn) [P-0021, 4-(1-(cyclopentyl(pyridin-2-yl)methyl)-5-(3,5-dimethylisoxazol-4-yl)-1H-pyrrolo[2,3-b]pyridin-3-yl)-N-methylbenzamide]: 1 to 8 µM; for `Cc1noc(C)c1-c1cnc2c(c1)c(-c1ccc(C#N)cc1)cn2C(c1ccccn1)C1CCCC1` (stereo not drawn) [P-0022, 4-(1-(cyclopentyl(pyridin-2-yl)methyl)-5-(3,5-dimethylisoxazol-4-yl)-1H-pyrrolo[2,3-b]pyridin-3-yl)benzonitrile]: 8 to 1000 µM; for `Cc1noc(C)c1-c1cnc2c(c1)c(-c1ccc3c(c1)CNC3=O)cn2C(c1ccccn1)C1CCCC1` (stereo not drawn) [P-0023, 5-(1-(cyclopentyl(pyridin-2-yl)methyl)-5-(3,5-dimethylisoxazol-4-yl)-1H-pyrrolo[2,3-b]pyridin-3-yl)isoindolin-1-one]: 1 to 8 µM.
The same measure for `Cc1noc(C)c1-c1cnc2c(c1)c(-c1ccc(-c3nn[nH]n3)cc1)cn2C(c1ccccn1)C1CCCC1` (stereo not drawn) [P-0024, 4-(3-(4-(2H-tetrazol-5-yl)phenyl)-1-(cyclopentyl(pyridin-2-yl)methyl)-1H-pyrrolo[2,3-b]pyridin-5-yl)-3,5-dimethylisoxazole]: 8 to 1000 µM.
Under `Cc1noc(C)c1-c1cnc2c(c1)c(-c1ccc(C(=O)O)c(F)c1)cn2C(c1ccccn1)C1CCCC1` (stereo not drawn) [P-0025, 4-(1-(cyclopentyl(pyridin-2-yl)methyl)-5-(3,5-dimethylisoxazol-4-yl)-1H-pyrrolo[2,3-b]pyridin-3-yl)-2-fluorobenzoic acid] stands 1 to 8 µM.
`Cc1noc(C)c1-c1cnc2c(c1)c(-c1ccc(C(=O)O)nc1)cn2C(c1ccccn1)C1CCCC1` (stereo not drawn) [P-0026, 5-(1-(cyclopentyl(pyridin-2-yl)methyl)-5-(3,5-dimethylisoxazol-4-yl)-1H-pyrrolo[2,3-b]pyridin-3-yl)picolinic acid]: the IC50 was in the range of 1 to 8 µM.
The same measure for `Cc1cc(-c2c(C(F)(F)F)n([C@@H](C)c3ccccn3)c3cc(-c4c(C)noc4C)cnc23)ccc1C(=O)O` [P-0243, (S)-4-(6-(3,5-dimethylisoxazol-4-yl)-1-(1-(pyridin-2-yl)ethyl)-2-(trifluoromethyl)-1H-pyrrolo[3,2-b]pyridin-3-yl)-2-methylbenzoic acid]: 1 to 8 µM; for `COc1cc(-c2c(C(F)(F)F)n([C@@H](C)c3ccccn3)c3cc(-c4c(C)noc4C)cnc23)ccc1C(=O)O` [P-0244, (S)-4-(6-(3,5-dimethylisoxazol-4-yl)-1-(1-(pyridin-2-yl)ethyl)-2-(trifluoromethyl)-1H-pyrrolo[3,2-b]pyridin-3-yl)-2-methoxybenzoic acid]: 1 to 8 µM; for `Cc1noc(C)c1-c1cnc2c(-c3cccc(C(=O)O)c3F)c(C(F)(F)F)n([C@@H](C)c3ccccn3)c2c1` [P-0245, (S)-3-(6-(3,5-dimethylisoxazol-4-yl)-1-(1-(pyridin-2-yl)ethyl)-2-(trifluoromethyl)-1H-pyrrolo[3,2-b]pyridin-3-yl)-2-fluorobenzoic acid]: 8 to 1000 µM.
Under `Cc1noc(C)c1-c1cnc2c(-c3cccc(C(=O)O)c3C)c(C(F)(F)F)n([C@@H](C)c3ccccn3)c2c1` [P-0246, (S)-3-(6-(3,5-dimethylisoxazol-4-yl)-1-(1-(pyridin-2-yl)ethyl)-2-(trifluoromethyl)-1H-pyrrolo[3,2-b]pyridin-3-yl)-2-methylbenzoic acid] stands 8 to 1000 µM; under `Cc1noc(C)c1-c1cnc2c(-c3cccc(C(=O)O)c3Cl)c(C(F)(F)F)n([C@@H](C)c3ccccn3)c2c1` [P-0247, (S)-2-chloro-3-(6-(3,5-dimethylisoxazol-4-yl)-1-(1-(pyridin-2-yl)ethyl)-2-(trifluoromethyl)-1H-pyrrolo[3,2-b]pyridin-3-yl)benzoic acid], 8 to 1000 µM.
